{"source": "patent EP1984014B1", "about": "“USE OF TPO PEPTIDE COMPOUNDS AND PHARMACEUTICAL COMPOSITIONS IN THE TREATMENT OF ANEMIA” (Janssen Pharmaceutica NV, priority 2006, dated 2007)", "key": {"[1]": {"test_system": "mice treated with two rounds of carboplatin", "assay": "Example 5: two rounds of high-dose carboplatin, hematocrit and survival of mice", "assay_type": "in vivo", "conditions": "of the mice not utilized for hematological evaluation; carboplatin alone versus combination therapy", "procedure": "(§1) The effects of PEGylated TPO Compound No. 1 on mice treated with carboplatin were observed. For all examples herein, a 10 mg/ml stock solution of PEGylated TPO Compound No. 1 was prepared in sterile saline. For mixing, the preparation was placed on a gyratory shaker for 15min. at 200 rpm. This method was used to dissolve PEGylated TPO Compound No. 1 without foaming. The stock was filtered using a GV Millex (0.22um) filter. Dosing solutions were then prepared from this stock using sterile saline. The stock and dosing solutions were prepared fresh on the day of use.\nGroups of mice were treated with two rounds of the chemotherapeutic agent (carboplatin) ten days apart, with each round consisting of two consecutive days of carboplatin (i.e., 70 mg/kg/day administered on Days -1 & 0 and Days 10 & 11) as delineated below. The dose of carboplatin utilized for these survival studies exceeded the maximal tolerated dose for mice (i.e., 120 mg/kg; administered as 60 mg/kg/day on 2 consecutive days). One hour following the second dose of carboplatin in each round (i.e., Day 0 and 11) mice were treated with PEGylated TPO Compound No. 1 (100ug/kg) or vehicle (sterile saline, SS, preservative-free 0.9% sodium chloride) by IV (bolus) injection as delineated below. The dose was administered on a per weight basis (100 ul/10g body weight). […]"}, "carboplatin-treated mice": {"test_system": "carboplatin-treated mice", "assay": "Example 4: lower doses (30, 100, 300ug/kg) as survival factor for erythrocyte lineages in carboplatin-treated mice", "assay_type": "in vivo, BALB/c mouse", "procedure": "as §1\nThe ability of PEGylated TPO Compound No. 1 to function as a survival factor for megakaryocyte and erythrocyte lineages in carboplatin-treated mice as determined by changes in hematological parameters was observed. […] In this study, the effect of lower doses of PEGylated TPO Compound No. 1 (i.e., 30, 100 and 300ug/kg) on the survival of erythrocyte lineages was examined to characterize the dose-response for this effect.\nThe groups of mice were treated with either carboplatin or vehicle (Phosphate Buffered Saline, PBS) by ip administration on Days -1 and 0 as delineated below. The optimal dose of carboplatin used to induce thrombocytopenia in the BALB/c mouse strain was previously determined to be a fractionated total dose of 120mg/kg given as two consecutive daily injections (i.e., 2x60mg/kg). Approximately one hour following the second dose of carboplatin, groups of mice were treated with PEGylated TPO Compound No. 1 or vehicle (sterile saline, SS, preservative-free 0.9% sodium chloride) by IV (bolus) injection as delineated in Table 4. The dose was administered on a per-weight basis (100ul/10g body weight).\n(§2) On Days 6, 8 and 12, five mice in each test group were weighed and then euthanised using CO2-asphyxiation and exsanguinations via cardiac puncture. The blood samples were transferred to separate EDTA (lavender-top) microcontainers for hematologic evaluation. Groups of control mice (5) were processed on Days 6 & 12."}, "[2]": {"test_system": "mice treated with carboplatin", "assay": "Example 2: dosing seven days before and/or 1 hour after carboplatin, hematological parameters in mice", "assay_type": "in vivo, BALB/c mouse", "procedure": "as §1\nThe possibility that PEGylated TPO Compound No. 1 may sensitize bone marrow hematopoietic stem cells of mice to the toxic effects of carboplatin treatment was examined. For this study, a dose of PEGylated TPO Compound No. 1 was administered to the mice seven days prior to the carboplatin dose or immediately after carboplatin treatment. An additional group was treated with PEGylated TPO Compound No. 1 both prior to and after carboplatin administration. The effect of these dosing regimens on hematological parameters was also observed.\nThe groups of mice were treated with either carboplatin or vehicle (Phosphate Buffered Saline, PBS) by ip administration on Days 7 and 8 as delineated below. The optimal dose of carboplatin used to induce thrombocytopenia in the BALB/c mouse strain was previously determined to be a fractionated total dose of 120mg/kg given as two consecutive daily injections (i.e., 2x60mg/kg). Seven days prior to the first carboplatin dose or one (1) hour after the second dose of carboplatin, groups of mice were treated with PEGylated TPO Compound No. 1 (300ug/kg) or vehicle (sterile saline, SS, preservative-free 0.9% sodium chloride) by IV (bolus) injection as delineated in Table 2. An additional group was treated with PEGylated TPO Compound No. 1 both before (Day 0) and after (Day 8, t=1h) the carboplatin dose. All dosing was performed on a per-weight basis (100ul/10g body weight).\nas §2, with “14, 18, 22” for “6, 8”, “26,” for “12,”, “exsanguination” for “exsanguinations”, “hematological” for “hematologic”, “14 and 26. The data are presented graphically as group means + SEM.” for “6 & 12.”"}, "carboplatin treated mice": {"test_system": "carboplatin treated mice", "assay": "Example 6: mechanistic study, increasing carboplatin doses, platelets, hematocrit, brain fibrinogen/fibrin histology", "assay_type": "in vivo", "procedure": "as §1\nFor mechanistic studies, groups of mice were treated with vehicle or increasing amounts of carboplatin (i.e., 60, 70 or 80 mg/kg) for 2 consecutive days (Day -1 & Day 0). Approximately one hour following the second dose of carboplatin, groups of mice were treated with PEGylated TPO Compound No.1 (100ug/kg) or vehicle (sterile saline, SS, preservative-free 0.9% sodium chloride) by IV.(bolus) injection as delineated in Table 5.\nOn Day 15, the mice in all treatment groups were euthanised using CO2-asphyxiation and exsanguinations via cardiac puncture. The blood samples were transferred to separate EDTA (lavender-top) microtainers for hematologic evaluation. In addition, several organs (including the brains) of control mice and mice treated with 2x70 mg/kg carboplatin without and with co-treatment with PEGylated TPO Compound No.1 were isolated and processed for histological examination. Sections of these tissues were processed immunohistochemically for fibrinogen/fibrin."}}}
{"substance": "Methoxypolyethyleneglycol20000-propionyl-L-Isoleucyl-L-Glutamyl-Glycyl-L-Prolyl-L-Threonyl-L-Leucyl-L-Arginyl-L-Glutaminyl-L-2-Naphthylalanyl-L-Leucyl-L-Alanyl-L-Alanyl-L-Arginyl-Sarcosyl-Ne-(methoxypolyethyleneglycol20000-propionyl-L-Isoleucyl-L-Glutamyl-Glycyl-L-Prolyl-L-Threonyl-L-Leucyl-L-Arginyl-L-Glutaminyl-L-2-Naphthylalanyl-L-Leucyl-L-Alanyl-L-Alanyl-L-Arginyl-Sarcosyl-)-Lysinamide [PEGylated TPO Compound No. 1]", "values": [{"measurement": "mice that died between days 4 and 18", "setting": "[1]", "result": 1}, {"measurement": "weight loss or recovery", "setting": "carboplatin-treated mice; 13-Day study period", "result": "did not appear to affect weight loss or recovery"}, {"measurement": "decreases in RBC counts and hematocrit induced by carboplatin treatment", "setting": "carboplatin-treated mice; 30, 100, 300ug/kg iv Day 0", "result": "effectively inhibited"}, {"measurement": "decrease in hemoglobin levels caused by carboplatin", "setting": "carboplatin-treated mice; all doses (30, 100, 300ug/kg iv Day 0, about 1 h after carboplatin), by Day 12", "result": "totally inhibited"}, {"measurement": "anemia induced by carboplatin", "setting": "carboplatin-treated mice; all doses, on Day 12", "result": "completely prevent"}, {"measurement": "altered appearance and behavior (hunched, unkempt, soft stool)", "setting": "carboplatin-treated mice; appeared to be dose-dependent", "result": "decreased the onset, frequency and severity of these signs"}, {"measurement": "carboplatin-induced changes in erythrocyte parameters", "setting": "[2]; 300ug/kg iv on Day 0 (only), seven days prior to carboplatin", "result": "failed to affect"}, {"measurement": "decreases in hemoglobin levels, RBC counts and hematocrits caused by carboplatin", "setting": "[2]; 300ug/kg iv on Day 8 (1 hour after the second carboplatin treatment) only", "result": "prevented"}, {"measurement": "decreases in hemoglobin levels, RBC counts and hematocrits caused by carboplatin", "setting": "[2]; 300ug/kg iv on Day 8 with an additional dose on Day 0", "result": "prevented"}, {"measurement": "body weight loss between Days 7 and 26", "setting": "[2]; co-treatment, all regimens, no statistical analysis", "result": "prevented this weight loss"}, {"measurement": "onset of signs (hunching, unkempt)", "setting": "[2]; treatment on Day 8 without or with additional treatment on Day 0", "result": "appeared to delay the onset of these signs"}, {"measurement": "severity and duration of signs (hunching, unkempt)", "setting": "[2]; treatment on Days 0 and 8", "result": "decreased the severity and duration"}, {"measurement": "small vessels in brain sections, fibrinogen/fibrin staining", "setting": "carboplatin treated mice; 2x70mg/kg carboplatin plus 100ug/kg iv, Day 15", "result": "appeared normal or exhibited fibrinogen/fibrin staining that was only slightly darker than the control group"}, {"measurement": "microthrombotic events in brain sections", "setting": "carboplatin treated mice; 2x70mg/kg carboplatin plus 100ug/kg iv, entire dose group", "result": "single"}, {"measurement": "survival", "setting": "carboplatin treated mice; 2x80mg/kg carboplatin plus 100ug/kg iv, all of the mice", "result": "survived until the scheduled study termination"}, {"measurement": "thrombocytopenia or anemia", "setting": "carboplatin treated mice; 2x80mg/kg carboplatin plus 100ug/kg iv, on Day 15", "result": "did not exhibit thrombocytopenia or anemia"}, {"measurement": "decreases in platelet and RBC counts induced by the carboplatin", "setting": "carboplatin treated mice; carboplatin 2x60 or 2x70mg/kg, 100ug/kg iv about one hour after second carboplatin dose, Day 15", "result": "totally inhibited"}, {"measurement": "fibrinogen deposition and blood clots in brain sections", "setting": "carboplatin treated mice; carboplatin treated mice, FIG. 19", "result": "reduces"}]}
